Test results as given in PMC6719172, “Inhibition of CpLIP2 Lipase Hydrolytic Activity by Four Flavonols (Galangin, Kaempferol, Quercetin, Myricetin) Compared to Orlistat and Their Binding Mechanisms Studied by Quenching of Fluorescence” (Molecules, 2019).
Where two headings read alike, the source gives them in different places.

Tests used:
[1] = cited from earlier work
CpLIP2 lipase [2] = molecular target: T1, CpLIP2 lipase (Candida parapsilosis, UniProt Q8NIN8); assay: Inhibition of CpLIP2 hydrolytic activity (ethyl oleate hydrolysis, GC); format: biochemical; settings: for Ki: non-competitive or uncompetitive model
Experimental: The effect of inhibitor concentrations on the hydrolysis reaction rate in standard conditions was assumed to follow either a non-competitive or an uncompetitive model, corresponding to Equation (1):(1) Ki=I/ V0/Vi−1 where V0 and Vi are the initial rates of the reaction without or with inhibitor at concentration I.
Standard CpLIP2 hydrolytic activity measurement. Hydrolysis activities were determined by measuring the initial rates of fatty acid and esters production (µmol·min^−1·mL^−1), using ethyl oleate (C18:1, EE) as substrates. Specific activity is the total activity expressed in µmol·min^−1·mL^−1 in relation to protein concentration (mg·mL^−1). Experiments were conducted as described by. Hydrolysis of ethyl oleate (EO) was performed in aqueous emulsions at 30 °C. This emulsion consisted of 100 µmol·mL^−1 EO emulsified by sonication (Branson Sonifier 250, 20 s, 200 watts, 145 µm amplitude) in an aqueous solution of 20 g·L^−1 poly vinyl alcohol. The reactions of hydrolysis were prepared in glass test tube by adding 100 μL of ethyl oleate emulsion to 800 µL of sodium phosphate buffer 50 mM, pH 6.5; then the solutions were incubated in water bath at 30 °C for 5 min. The reaction was started by the addition of 100 µL of enzyme solution of CpLIP2 with final concentration 3 µg·mL^−1 with activity 2000 U/mL.
The enzyme solution was pre-incubated at 25 °C, with continuous stirring at 350 rpm. Pre-incubation was conducted with 1980 µL CpLIP2 lipase diluted in sodium NaH2PO4/Na2HPO4 phosphate buffer (50 mM, pH 6.5) containing 20 µL absolute EtOH at 2 different times (1 and 30 min). This pre-incubation phase was conducted in closed vials placed during 2 h on a Radleys StarFish Multi-Experiment Workstation. The reaction was conducted for 15 min at 30 °C, and then stopped by adding 950 µL of a mixture of ethanol/sulphuric acid (100:0.8, v/v). After the addition of 50 µL of internal standards (ethanolic solution of pentadecanoic acid and its ethyl and methyl esters, 1 µmol each), lipids were extracted from the mixture with 1 mL of hexane. Samples were then prepared for analyzing esters and free fatty acids by gas chromatography (GC) as follows. Hexane extract (200 µL) was reacted with 25 µL pyridine and 25 µL N-methyl-tri (methylsilyl)-trifluoroacetamide (MSTFA) as silylating agent. Mixtures were incubated in water bath at 50 °C for 20 min, and then samples were ready for analysis. Reaction rates were determined by the analysis of fat composition by capillary gas chromatography after 15 min reaction. It was checked that less than 30% of the total substrate was converted at the end of the 15 min reaction.
A Shimadzu GC 2010 plus gas chromatograph equipped with a flame ionization detector, an automatic sampler (injected volume 0.1 μL) and a split/splitless injector was used for analysis. The capillary column was a DB-5ht (15 m × 0.25 mm, Phenomenex, Le Pecq, France). The helium carrier flow was 1 mL min^−1and the split ratio was 1:50. Temperature conditions were, for reactions with individual substrates: injector 280 °C, detector 290 °C, oven 200–225 °C at 10 °C min^−1 then to 260 °C at 35 °C·min^−1 for ethyl ester (EE) and fatty acid (FA) of C18:1. Calibration curves were realized using emulsions of mixtures of FA and monoesters prepared according to the same protocol, without enzyme and alcohol.
In order to measure the residual lipase activity in the presence of potential inhibitors, the previous method was conducted in the presence and absence of the inhibitors. For each potential inhibitor, the lipase-catalyzed rate of hydrolysis was evaluated after a pre-incubation period between the lipase and the potential inhibitors, which were solubilized in absolute ethanol at 1% of final concentration. The preincubation was performed at 25 °C with continuous stirring at 350 rpm with different concentration of inhibitors (14, 27.5, 55 µM) which represented, respectively 25, 50, 100-fold the final lipase concentration (0.55 µM). […]

CpLIP2 lipase [3] = molecular target: T1, CpLIP2 lipase; assay: Fluorescence resonance energy transfer between CpLIP2 and flavonols (Förster theory); format: binding; settings: for E (energy transfer efficiency) / J (overlap integral) / R0 (Förster distance) / r (distance between acceptor and donor) / r/R0: 2.5 µM, 308 K, pH 7.0; for R0 (Förster distance): values in Å; for r (distance between acceptor and donor): values in Å
Description: Fluorescence emission spectra of CpLIP2 lipase overlap the UV absorption spectrum of each flavonol studied, that may induce fluorescence resonance energy transfer (FRET) governed by the binding distance r between the protein behaving as energy donor and the flavonol energy acceptor. The binding distance r can be calculated via Förster theory with the following Equations (10) and (11):(10) E=1−F/ F0=R06/ R06+r^6 where E is the energy transfer efficiency, which is the photons fraction absorbed and transferred by the donor to the acceptor, F and F0 are the fluorescence intensities of donor (CpLIP2) in the presence or absence of acceptor (flavonol) at the same concentrations. The parameter r is the distance between acceptor and donor, and R0 is the Förster distance, which is the critical energy transfer distance when 50% of the excitation energy is transferred from the donor to the acceptor. […] The value of R0 ranges from 20–90 Å for biological macromolecules.

[4] = estimated after 30 min of pre-incubation
[5] = concentration not stated (14–55 µM tested), up to 30 min pre-incubation
[6] = read-out: inhibition of CpLIP2 activity

T1 sequence (Q8NIN8 entry or part of it): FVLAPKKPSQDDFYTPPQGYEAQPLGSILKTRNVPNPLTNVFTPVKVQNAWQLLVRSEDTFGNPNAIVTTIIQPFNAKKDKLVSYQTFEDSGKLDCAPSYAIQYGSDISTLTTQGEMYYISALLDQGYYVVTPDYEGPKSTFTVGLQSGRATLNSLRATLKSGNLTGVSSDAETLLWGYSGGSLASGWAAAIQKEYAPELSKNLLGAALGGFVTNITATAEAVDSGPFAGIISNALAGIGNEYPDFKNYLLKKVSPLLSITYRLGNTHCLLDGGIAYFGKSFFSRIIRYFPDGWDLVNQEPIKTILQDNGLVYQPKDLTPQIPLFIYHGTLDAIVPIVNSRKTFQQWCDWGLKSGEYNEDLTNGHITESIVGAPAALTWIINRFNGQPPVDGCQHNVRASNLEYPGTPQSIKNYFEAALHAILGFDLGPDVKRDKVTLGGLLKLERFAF

SMILES	log10 P of partition between octanol and water phases [1]	log10D (octanol/water at pH 7.4) ([1]; pH 7.4)	Ki (CpLIP2 lipase [2]; [4]) [µM]	inhibition of CpLIP2 activity (CpLIP2 lipase [2]; after 1 min pre-incubation, concentration not given)	inhibition of CpLIP2 activity (CpLIP2 lipase [2]; [5])	percentage of transfer efficiency (CpLIP2 lipase [3]) [%]	E (energy transfer efficiency) (CpLIP2 lipase [3])	J (overlap integral) (CpLIP2 lipase [3])	R0 (Förster distance) (CpLIP2 lipase [3]) [Å]	r (distance between acceptor and donor) (CpLIP2 lipase [3]) [Å]	r/R0 (CpLIP2 lipase [3])	inhibition of CpLIP2 activity (CpLIP2 lipase [2]; 55 µM (100-fold molar excess, highest concentration), pre-incubation time not stated, 55 µM) [%]	Ki (CpLIP2 lipase [2]; estimated after 1 min of pre-incubation) [µM]	inhibition at 27.5 µM (CpLIP2 lipase [2]; read-out: inhibition of CpLIP2 activity, 27.5 µM (50-fold lipase concentration), pre-incubation time not stated) [%]	inhibition at 55 µM (CpLIP2 lipase [2]; read-out: inhibition of CpLIP2 activity, 55 µM (100-fold molar excess, highest concentration), pre-incubation time not stated) [%]	inhibition at 14 µM (CpLIP2 lipase [2]; read-out: inhibition of CpLIP2 catalytic activity, 14 µM, within 1 min of pre-incubation) [%]	inhibitory effect relative to THL (times lower) (CpLIP2 lipase [2])	inhibition at 14 µM (CpLIP2 lipase [2]; [6]) [%]	inhibition at 27.5 µM (CpLIP2 lipase [2]; [6]) [%]	inhibition at 55 µM (CpLIP2 lipase [2]; [6]) [%]
O=c1c(O)c(-c2ccccc2)oc2cc(O)cc(O)c12 [GAL, galangin]	3.9	0.7	> 150	no inhibition	≤ 20%	24	0.24	0.8 × 10^14 nm^4·cm^−1·M^−1	23.6	28.5	1.2									
O=c1c(O)c(-c2ccc(O)cc2)oc2cc(O)cc(O)c12 [KAE, kaempferol]	3.5		6			12	0.12	10 × 10^14 nm^4·cm^−1·M^−1	36.0	50.1	1.4	90	4	> 80	92	80				
O=c1c(O)c(-c2cc(O)c(O)c(O)c2)oc2cc(O)cc(O)c12 [MYR, myricetin]	2.1		60		about 20%	23	0.23	15 × 10^14 nm^4·cm^−1·M^−1	38.4	46.7	1.2						about 100 times			
O=c1c(O)c(-c2ccc(O)c(O)c2)oc2cc(O)cc(O)c12 [QUE, quercetin]	2.9		80			6	0.06	12 × 10^14 nm^4·cm^−1·M^−1	36.9	58.7	1.6						about 100 times	37	39	35
